This is an account of results in patent publication US8563578B2, “Antitumor properties of NO modified protease inhibitors” (Onconox APS, priority 2008, dated 2013).

The structures appear in SMILES notation.

The test system of one data set is tyrosinase of B16 cells. In words: Tyrosinase activity assay, B16. It is filed as cell-based, mouse. Particulars: 18.8 μM, 24 h. Here is the method: Tyrosinase activity was determined by measuring the rate of oxidation of L-DOPA^34. Briefly, sub-confluent cultures in 6-well plate were lysed in 100 μl phosphate buffer pH 6.8-1% Triton X-100 and than centrifuged at 10000 rpm for 5 min. 40 μl of each extract was mixed with 100 μl of L-DOPA substrate solution (2 mg/ml). Enzymatic reaction was carried out at 37° C. and the absorbance at 570 nm was read every 10 min for at least 1 h. The final activity was corrected by the total amount of protein estimated by Bradford assay. For melanin determination cells were incubated in 6 well plate for 24 h, trypsinized, counted and than lysed in 100 μl of 1M NaOH. 400 μl of distilled water was added and samples were incubated at 60° C. for 1 h. Thereafter, absorbance of dissolved dye was measured at 492 nm.
FIG. 5. […] Cell morphology was assessed by light microscopy (A). Markers of cell differentiation of C6 and B16 cells, galactocerebroside, GFAP and MBP were determined by cELISA and melanin and tyrosinase activity were determined as described in material and methods (B). Cyclin D3 and p53 expression were evaluated by cELISA (C, upper panels), immunocytochemistry (C, middle panel) and Western blot (C, lower panel). The results were presented as mean±SD from three independent experiments. *p<0.05, refers to untreated cultures.

The next data set deals with C6 cells. In words: Autophagy detection by acridin orange staining, C6. It is filed as cell-based, rat. Particulars: 18.8 μM, 24 h. Here is the method: Vital dye acridin orange (AO) was used for detection of autophagy. The intensity of red fluorescence correlates with acidity and volume of present autophagic organelles (Kanzawa et al. 2004). Assay was performed as follows: the cells were cultured in 6-well plate (2×10^5/well) 24 h in the presence of the drug, detached with trypsin and stained with 1 μg/ml AO in RPMI without phenol red for 15 min at RT. After the end of incubation period cells were washed and resuspended in PBS. Green and red fluorescence emission was measured with a FACSCalibur and analyzed using CellQuest software.
FIG. 4. […] Results are calculated as indicated in materials and methods and presented as mean±SD from representative of three independent experiment (*p <0.05). […] After 24 h of cultivation without or with drugs, cells were stained with AO orange (B) or PI (C) and analyzed by flow cytometry. The data are presented as mean±SD from three independent experiments. *p<0.05, refers to untreated cultures. […] Cells were incubated with 18.8 μM of Sag or Saq-NO2 for 24 h. After that, the drugs were either removed or not from the cells and incubated for additional 24 h. Cell viability was determined by CV test after 24 and 48 h of incubation (right panels). The data are presented as mean±SD from three independent experiments. *p<0.05, refers to untreated cultures.

For the next data set, the system named is p-Akt in B16 cells. The experiment in a line: Akt phosphorylation (cELISA, Western blot), B16. It is filed as cell-based, mouse. Particulars: 18.8 μM, B16 as representative (similar in C6). From the text: A slightly modified method for cell-based ELISA (cELISA) by Versteeg (Versteed et al., 2000) was used to measure the expression of galactocerebroside, glial fibrilar acidic protein (GFAP), myelin basic protein (MBP), cyclin D3, p53 and p-AKT. Briefly, at the end of cultivation period cells were fixed in 4% paraformaldehyde, endogenous peroxydase was quenched with 1% H2O2 in PBS containing 0.1% Triton X-100 (PBST), and unspecific binding of antibodies blocked with PBST solution containing 10% FCS. […] The absorbance at 450 nm was measured in an automated microplate reader 15 min after incubation with peroxydase substrate TMB and subsequently to addition of 0.1 M HCl. To facilitate comparison between treatments, the obtained absorbances were corrected for the cell number that was determined by crystal violet staining, as described in the original protocol. […]
FIG. 6. […] (C) B16 cells (1×10^4 cells/well) were incubated for 24 h with 18.8 μM Saq-NO2 with or without Akt VI (50μg/ml) or 3-MA (1 mM) and cell viability was assessed by MTT. […]
On the technique in general: In western blotting, separated proteins are transferred to a membrane and probed.

A further data set concerns B16 melanoma. In words: B16 melanoma growth in syngeneic C57BL/6 mice. It is filed as in vivo, mouse. Particulars: 10 mg/kg i.p.; for animals that developed tumors at autopsy: day 30 post tumor challenge. The procedure: In order to induce primary tumor 2×10^5 B16 melanoma cells were injected subcutaneously (s.c) in the dorsal right lumbosacral region of syngeneic C57BL/6 mice. Tumor growth was observed daily, and the drug treatment started from day 10 after implantation. […] Mice were sacrificed on day 30, tumor growth was determined by three-dimensional measurements of individual tumors from each mouse. Tumor volume was calculated as: [0.52×a×b^2], where a is the longest and b is the shortest diameter as described previously (Maksimovic-Ivanic et al. 2008).
FIG. 7. […] Tumor volumes were determined 30 days after tumor implantation, as indicated in Materials and methods.

Setting [1] is: 15 consecutive days from day 10.

`CC(C)(C)NC(=O)[C@@H]1C[C@@H]2CCCC[C@@H]2CN1C[C@@H](O[N+](=O)[O-])[C@H](Cc1ccccc1)NC(=O)[C@H](CC(N)=O)NC(=O)c1ccc2ccccc2n1` [Saq-NO2, nitric ester of Saquinavir]: the tyrosinase activity entry in the data set with tyrosinase of B16 cells is listed as “slight but significant decrease”. Besides, the “amount of acidic vesicles in the cytoplasm (autophagy)” value with C6 cells was “absence of autophagia”. In addition, the “p-Akt expression / phosphorylation of AKT” value with p-Akt in B16 cells was “induced considerable transient phosphorylation of AKT”. Moreover, in the data set on B16 melanoma (15 consecutive days), the “raise of body weight, of initial body weight” value was determined as 13% and the “visible signs of toxicity” value is “no any visible signs of toxicity”. Further, the “animals that developed tumors at autopsy” value in the data set on B16 melanoma (setting [1]) is recorded as “one”.

As to `CC(C)(C)NC(=O)[C@@H]1C[C@@H]2CCCC[C@@H]2CN1C[C@@H](O)[C@H](Cc1ccccc1)NC(=O)[C@H](CC(N)=O)NC(=O)c1ccc2ccccc2n1` [Saq, Saquinavir, reference compound], the tyrosinase activity result with tyrosinase of B16 cells is recorded as “increased”. Besides, in the data set on C6 cells, the “amount of acidic vesicles in the cytoplasm (autophagy)” value is listed as “absence of autophagia”. Besides, in the data set with p-Akt in B16 cells, the “p-Akt expression / phosphorylation of AKT” value is recorded as “abrogated p-Akt expression”. In the data set with B16 melanoma (15 consecutive days), the “animals without tumors with strong inflammation of peritoneum” value is given as 4 animals and the “loss of body weight from initial body weight” value turned out to be 10%. Besides, the tumor volume entry in the data set on B16 melanoma (15 consecutive days from day 10, day 30) is “significantly reduced volume”. Also, the “animals that developed tumors at autopsy” value in the data set with B16 melanoma (setting [1]) was 3/9.
